Reference: patent US10316021B2, “Heteroarylphenoxy benzamide kappa opioid ligands” (Pfizer Inc., priority 2016, dated 2019)
Where two headings read alike, the source gives them in different places.

What was measured:
[1] = tested on: isolated rat mitochondria; assay: Respirometric screening technology (RST) assay; assay type: biochemical; details: for RST inhibitory: inhibition of oxidative phosphorylation
Procedure: Respirometric Screening Technology (RST) Assay:
This assay was carried out substantially as described in Hynes et al. Toxicological Sciences 91(1), 186-200 (2006). More specifically, the assay conditions were similar to those described for the “Fluorescence-based assay of mitochondrial respiration” at page 188-189 of the Hynes reference.
Mitochondrial dysfunction has also been noted as a characteristic feature of many chronic illnesses, including bipolar disorder, Parkinson's disease, schizophrenia, depression, autism, and chronic fatigue syndrome (Morris 2015). Mitochondrial dysfunction can be assessed by measuring mitochondrial oxygen consumption in isolated rat mitochondria using luminescent oxygen-sensitive probes in a respirometric screening technology (RST) assay (Hynes 2006); both inhibition and uncoupling of oxidative phosphorylation in the RST assay were measured for compounds in Table 23.

[2] = In vitro intrinsic clearance in human liver microsomes; assay type: in vitro ADME; details: for CLint scaled at 2 μM: human, read-out: HLM CLint
Procedure: Determination of In Vitro Intrinsic Clearance in Human Liver Microsomes:
Compounds were prepared as solutions in methanol. The final concentration of methanol in the incubation media was 0.2% (v/v). […] The total incubation volume was 1 mL. The reaction mixture was pre-warmed at 37° C. for 2 min before adding NADPH (1.2 mM). Aliquots (75 μL) of the reaction mixture at 0, 5, 10, 15, and 30 min were added to acetonitrile (200 μL) containing internal standard (terfenadine)(0.05 μg/mL), and the samples were centrifuged at 2500 g for 5 min prior to liquid chromatography/tandem mass spectrometry (LC/MS-MS) analysis of each compound using multiple reaction monitoring (MRM). For control experiments, NADPH was omitted from these incubations.
The microsomal half-life (t1/2) was obtained from a log-linear plot of the substrate depletion vs incubation time and was scaled to hepatic intrinsic clearance (CLint) using the following equation, in which the term t1/2 refers to the in vitro half-life: […]

[3] = Shake flask Log D (SFLogD) determination, pH 7.4; assay type: physicochemical; details: for logD: shake flask, octan-1-ol / 0.1 M sodium phosphate buffer
Procedure: Shake Flask Log D (SF Log D) Determination:
The Log D determinations were carried out in a similar manner as described by Hay et al. Drug Metabolism and Disposition 37(9), 1864-1870, 2009, the procedure of which is generally described below.
Log D(7.4) Determination. The distribution coefficient of the test compounds between octan-1-ol and 0.1 M sodium phosphate buffer, pH 7.4, was determined by the shake flask methodology in an automated manner. 0.3 mg of compound was dissolved in 300 μL of octan-1-ol and aliquoted in duplicate into a 96-well block. Three hundred microliters of presaturated buffer (2 liters of buffer presaturated with 10 mL of octan-1-ol) was added to the wells, and the solution was vigorously mixed. After centrifugation, the two phases were separated. Ten microliters of a 1:200 dilution of the octan-1-ol layer and 10 μL of a 1:20 dilution of the buffer layer were directly injected onto the high-performance liquid chromatography (HPLC) (for example using an appropriate C18 column, isocratic elution with 90% methanol, 10% water, 2 mM ammonium acetate, and 0.03% formic acid at flow rate of 2 mL/min). The peak areas were corrected for the dilution factors, and the following calculation was applied to determine the mean log D value at pH 7.4 (log D(7.4)): […]

[4] = tested on: THLE-2 (transformed human liver epithelial) cells; assay: Transformed human liver epithelial (THLE) assay, ATP depletion 72 h; assay type: cell-based; details: for IC50: Homo sapiens, read-out: THLE; for cytotoxicity in THLE cell line, in words: cellular ATP
Procedure: Transformed Human Liver […] (THLE) Assay:
ATP depletion was measured after 72 hours of exposure to a particular concentration of the chemical. […] Cells were cultured in T175 Human fibronectin/collagen/bovine serum albumin coated flasks. […] Plates were incubated for 24 hours at 37° C., 5% CO2.
All compounds were initially solubilized in 100% DMSO. This dosing scheme contained 32 compounds per plate. Stock plates were prepared using 1 μl aliquots of 100× compound/well (30 mM-0.058 mM). The plates were prepared for dosing by adding 99 μl of cell culture media and mixing. Test compounds were added to cell culture plates by aspirating overnight culture media and replacing with 25 μL/well of media containing test compound using the layout outlined below. The final concentration of DMSO in each well was 1.0%. […] The ATP concentration was determined by reading luminescence using a Wallac Envision plate reader (Perkin Elmer, Waltham, Mass., USA). Percent of viable cells relative to no-drug treated controls was determined for each well.

[5] = target: T1, human kappa opioid receptor (hKOR) (Homo sapiens, UniProt P41145); assay: Kappa radioligand binding assay ([3H]diprenorphine, CHO cell membranes); details: for Selectivity hMOR/hKOR: selectivity ratio calculated by dividing the hMOR Ki by the hKOR Ki
T1 construct: expressed in transfected cells; host or cells: CHO cells
T1 sequence (P41145 whole entry): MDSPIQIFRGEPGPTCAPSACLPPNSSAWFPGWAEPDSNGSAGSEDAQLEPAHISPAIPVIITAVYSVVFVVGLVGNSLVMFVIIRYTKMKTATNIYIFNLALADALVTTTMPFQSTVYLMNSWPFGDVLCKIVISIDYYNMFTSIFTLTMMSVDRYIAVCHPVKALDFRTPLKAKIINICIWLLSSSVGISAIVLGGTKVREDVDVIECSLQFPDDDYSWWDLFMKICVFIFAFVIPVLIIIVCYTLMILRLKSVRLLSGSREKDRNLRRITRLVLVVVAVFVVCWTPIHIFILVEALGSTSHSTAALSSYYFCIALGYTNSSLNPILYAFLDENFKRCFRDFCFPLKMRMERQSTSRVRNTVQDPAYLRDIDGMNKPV
How it was run: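 Membranes from CHO cells expressing human kappa receptor incubated 1 h at room temperature with compound and 0.6 nM [3H]diprenorphine in 50 mM Tris pH 7.4, 1 mM EDTA, 5 mM MgCl2. Nonspecific binding defined with 10 μM naltrexone; filtration, scintillation counting; IC50 from 4-parameter fit converted to Ki via Cheng-Prusoff.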

[6] = pH 7.4, human liver microsomal intrinsic clearance
[7] = THLE-2, ATP cell viability, 72 hours
[8] = Table 19, geometric mean of 2-6 determinations unless otherwise indicated (Example 3: >=7), read-out: hKOR binding assay Ki
[9] = Table 20, radioligand binding, read-out: hKOR binding assay Ki
[10] = radioligand binding, [3H]diprenorphine, read-out: hKOR Ki

Row | SMILES | CLint scaled at 2 μM [2, 6] [mL/min/kg] | logD [3] | activity in the RST assay (inhibition / uncoupling of oxidative phosphorylation), in words [1] | CLint scaled at 2 μM ([2]; pH 7.4, human liver microsomes) [mL/min/kg] | Ki [5, 8] [nM] | Ki [5, 9] [nM] | Ki [5, 10] [nM] | RST inhibitory [1] | hepatic / metabolic clearance in human liver microsomes, in words [2] | IC50 [4, 7] [nM] | Log D, in words [3] | selectivity for KOR over MOR, in words [5] | Selectivity hMOR/hKOR [5] | cytotoxicity in THLE cell line, in words ([4]; 72 hours) | Ki ([5]; hKOR binding assay Ki, Table 20, radioligand binding) [nM] | IC50 ([4]; THLE-2, 72 h) [nM]
1 | COc1nn(C)cc1[C@@H]1CCCN1Cc1ccc(Oc2ccc(C(N)=O)cc2)cc1 (single isomer, unassigned) [Example 12] | 8 | 1.4 | no significant activity | < 20 | 1.47 | 1.5 | 1 to 3 | No effect | surprisingly low intrinsic metabolic turnover rates | > 300000 | much more in line with drugs that progress to Phase II | more selective than the phenyl examples, Comparators A and B | 31 | little to no cytotoxicity |  | 
2 | NC(=O)c1ccc(Oc2ccc(CN3CCC[C@H]3c3cccc(F)c3)cc2)c(F)c1 [Comparator F] | 36 | 3.7 |  |  |  |  |  | 66 µM |  |  | significantly higher Log D values |  | 35 | cytotoxicity at lower concentrations | 1.1 | 37000
3 | Cc1cc(C)cc([C@@H]2CCCN2Cc2ccc(Oc3ccc(C(N)=O)cc3F)cc2)c1 [Comparator E, reference compound] | 30 | 4.6 | μM inhibitory activity |  |  | 0.2 |  | 19 µM |  | 26000 | significantly higher Log D values |  | 39 | cytotoxicity at lower concentrations |  | 
4 | Cc1nn(C)cc1[C@@H]1CCCN1Cc1ccc(Oc2ccc(C(N)=O)cc2)cc1 [Example 11, 4-(4-{[(2S)-2-(1,3-Dimethyl-1H-pyrazol-4-yl)pyrrolidin-1-yl]methyl}phenoxy)benzamide] | 20 | 1.9 | no significant activity | < 20 | 1.21 | 1.2 | 1 to 3 | No effect | surprisingly low intrinsic metabolic turnover rates |  | much more in line with drugs that progress to Phase II | more selective than the phenyl examples, Comparators A and B | 42 | little to no cytotoxicity |  | > 300000
5 | NC(=O)c1ccc(Oc2ccc(CN3CCCC3c3ccccc3)cc2)nc1 (centres unmarked) [Comparator D] | 45 | 2.3 |  |  |  | 5.8 |  | No effect |  |  |  |  | 28 |  |  | 179000
6 | NC(=O)c1ccc(Oc2ccc(CN3CCCC3c3cccnc3)cc2)c(Cl)c1 (centres unmarked) [Comparator C] | 320 | 3.2 | μM inhibitory activity |  |  | 1.2 |  | 21 µM | high hepatic clearance | 177000 |  |  | 17 |  |  | 

The next lines start with results.

Row | CLint scaled at 2 μM [2, 6] [mL/min/kg] | logD [3] | activity in the RST assay (inhibition / uncoupling of oxidative phosphorylation), in words [1] | CLint scaled at 2 μM ([2]; pH 7.4, human liver microsomes) [mL/min/kg] | Ki [5, 8] [nM] | Ki [5, 9] [nM] | Ki [5, 10] [nM] | SMILES | RST inhibitory [1] | hepatic / metabolic clearance in human liver microsomes, in words [2] | IC50 [4, 7] [nM] | Log D, in words [3] | selectivity for KOR over MOR, in words [5] | Selectivity hMOR/hKOR [5] | cytotoxicity in THLE cell line, in words ([4]; 72 hours) | Ki ([5]; hKOR binding assay Ki, Table 20, radioligand binding) [nM] | IC50 ([4]; THLE-2, 72 h) [nM]
7 | 89 | 2.7 |  |  |  |  |  | NC(=O)c1ccc(Oc2ccc(CN3CCCCC3c3ccccc3)cc2)nc1 (centres unmarked) [Comparator B] | No effect | high hepatic clearance | 224000 |  |  |  |  |  | 
8 | 20 | 1.8 |  |  |  | 3.1 |  | NC(=O)c1ccc(Oc2ccc(CN3CCC(c4ccccc4)C3)cc2)nc1 (centres unmarked) [Comparator A, reference compound] |  |  | > 300000 |  |  | 0.03 |  |  | 
9 | 12 | 1.9 | no significant activity | < 20 | 2.56 | 2.6 | 1 to 3 | COc1nn(C)cc1C1CCCN1Cc1ccc(Oc2ccc(C(N)=O)cc2F)cc1 (single isomer, unassigned; (-)) [Example 8, (−)-3-Fluoro-4-(4-{[2-(3-methoxy-1-methyl-1H-pyrazol-4-yl)pyrrolidin-1-yl]methyl}phenoxy)benzamide] | No effect | surprisingly low intrinsic metabolic turnover rates | > 300000 | much more in line with drugs that progress to Phase II | more selective than the phenyl examples, Comparators A and B | 37 | little to no cytotoxicity |  | 
